Test results taken from patent US20150323548A1, “METHODS OF MONITORING THE MODULATION OF THE KINASE ACTIVITY OF FIBROBLAST GROWTH FACTOR RECEPTOR AND USES OF SAID METHODS” (Novartis AG, priority 2008, published 2015).
Marks after values point to notes of the source that are not given here.

Assays:
[1] = tested on: NIH3T3/FGFR3^S249C subcutaneous tumors; assay: Anti-tumor activity in subcutaneous NIH3T3/FGFR3^S249C tumor homograft model in nude mice; assay type: in vivo, mouse; conditions: p.o., qd, treatment day 8
Protocol: (§1) Animals. Experiments were performed in female HsdNpa: Athymic Nude-nu mice obtained from Laboratory Animal Services, Novartis Pharma AG, Basel, Switzerland. The animals were kept under OHC conditions in Makrolon type II cages (maximum of 10 animals/cage) with 12 hour dark, 12 hour light conditions (lights on: 6 AM, lights off: 6 PM). The animals were fed food and water ad libitum. Experiments were conducted under license number 1762 and license number 1763 approved by the Basel Cantonal Veterinary Office. All invasive procedures were performed under Forene anesthesia.
Establishment of NIH3T3/FGFR3^S249C tumor homograft model in nude mice. The NIH3T3/FGFR3^S249C model has been validated and characterized as a subcutaneous murine tumor model for the in vivo profiling of FGFR inhibitors. The parental NIH3T3 cell line was originally derived by immortalization of mouse embryonic fibroblasts. NIH3T3/FGFR3^S249C cells were generated by infection of parental NIH3T3 fibroblasts with a retroviral vector expressing FGFR3 with the activating mutation S249C. Pools of G418 resistant NIH3T3^S249C cells were established and characterized for FGFR3 expression and tyrosine phosphorylation. To generate homografts, 5×10^5 NIH3T3/FGFR3^S249C cells resuspended in PBS were injected subcutaneously in nude mice (0.2 ml/mouse).
Evaluation of anti-tumor activity. For the NIH3T3/FGFR3^S249C model, treatment was initiated when the average tumor volume reached approximately 100 mm^3. Tumor growth and body weights were monitored at regular intervals. The tumor sizes were measured manually with calipers. Tumor volume was estimated using the formula: (W×L×H×π/6), where width (W), length (L) and height (H) are the three largest diameters.
(§2) Statistical analysis. When applicable, results are presented as mean±SEM. Tumor and body weight data were analyzed by ANOVA with post hoc Dunnett's test for comparison of treatment versus control group. The post hoc Tukey test was used for intra-group comparison. The level of significance of body weight change within a group between the start and the end of the experiment was determined using a paired t-test. Statistical analysis was performed using GraphPad prism 4.02 (GraphPad Software).
(§3) As a measure of anti-tumor efficacy, the % T/C value is calculated at a certain number of days after treatment start according to: (mean change of tumor volume treated animals/mean change tumor volume control animals)×100. When applicable, % regressions are calculated according to the formula (mean change tumor volume/mean initial tumor volume)×100.
(§4) Compound formulation and animal treatment. […] Vehicle consisted of PEG300/DSW. The application volumes were 10 ml/kg.

[2] = Rat mechanistic study: histopathology and tolerability; assay type: in vivo
FGF23 [3] = assay: FGF23 ELISA in plasma of nude mice bearing RT112/lucl xenografts; assay type: in vivo, mouse; conditions: 50 or 75 mg/kg/qd p.o., 14 days; two hours post-last dosing
Protocol: Data are presented as means±SD.
Tissue processing for ex vive analysis. At the end of the experiments, 2 hours after the last compound administrations, tumor samples and blood were collected.
Aliquots of 50 mg tumor powder were weighed, placed on ice and immediately resuspended at a ratio of 1:10 (w/v) in ice-chilled lysis buffer (50 mM Tris pH 7.5, 150 mM NaCl, 1 mM EGTA, 5 mM EDTA, 1% Triton, 2 mM NaVanadate, 1 mM PMSF and protease inhibitors cocktail Roche #11873580001). Lysis was allowed to proceed for 30 min on ice, lysates were clarified by centrifugation at 12000×g for 15 min and protein concentration was determined using DC protein assay reagents (Bio Rad #500-0116) and a BSA standard. Blood was collected from the vena cava with a 23 gauge needle into a 1 ml syringe containing 70 μl of a 1000 IU/ml heparin solution. Blood was then stored on ice for 30 min until centrifugation (10,000 g, 5 min) and then the plasma was collected.
FGF23 ELISA assay. […] Briefly, two specific murine monoclonal antibodies that bind to full-length FGF-23 are used: the first antibody is immobilized onto the microtiter plate well for capture and the second antibody is cojugated to HRP (horseradish peroxidase) for detection. In a first reaction, plasma or serum samples are added onto microtiter wells coated with the anti-FGF23 antibody to allow binding. […]

[4] = tested on: RT112/lucl xenograft tumors; assay: Anti-tumor activity in RT112/lucl subcutaneous xenograft model in nude mice; assay type: in vivo, mouse; conditions: 14 days; for Regr. (%) / Δ body weight (% ± SEM) / Δ body weight (mean g ± SEM) / Δ tumor volume (mean mm^3 ± SEM): p.o., qd
Protocol: as §1
Establishment of RT112/lucl tumor xenograft model in nude mice. The parental RT-112 human urinary bladder transitional cell carcinoma cell line, which expressed high levels of wild type FGFR3, was initially derived from a patient with untreated primary urinary bladder carcinoma (histological grade G2, stage not recorded) in 1973 (Marshall et al., 1977, Masters et al., 1986). The original stock vial of RT112 cells used in this study was obtained from DSMZ ACC #418.
The cells were cultured in MEM medium supplemented with 10% Fetal Calf Serum, 1% sodium pyruvate and 1% L-glutamine. Cell culture reagents were purchased from BioConcept (Allschwil, Switzerland).
The parental RT112 cell line was infected with the retroviral expression vector pLNCX2/lucl and pools of G418 resistant cells were established and characterized for luciferase expression. The CMV driven expression of luciferase allows the detection of tumors using Xenogen IVIS™ cameras after injection of D-luciferin.
For the RT112/lucl model, treatments were initiated when the mean tumor volumes were approx. 180 mm^3 and mice were treated daily for 14 days. Body weights and tumor volumes were recorded twice a week. Tumor volumes were measured with calipers and determined according to the formula length×diameter^2×π/6.
as §2, §3, §4

FGF23 [5] = assay: FGF23 ELISA in serum of wistar rats; assay type: in vivo, rat; conditions: 24 h post administration, p<0.01
Protocol: Data are presented as means of n=6, ±SD.
Animals. Experiments were performed in female wistar rats furth WF/Ico
The application volumes were 5 ml/kg.
Blood samples were drawn sublingually at 24 h post-compound administration. Plasma, as well as serum samples were prepared from each blood sample.

FGF23 [6] = assay: FGF23 ELISA in plasma of dogs; assay type: in vivo, dog; conditions: plasma 1 hour after last administration

CCN1CCN(c2ccc(Nc3cc(N(C)C(=O)Nc4c(Cl)c(OC)cc(OC)c4Cl)ncn3)cc2)CC1 [COMPOUND A, 3-(2,6-Dichloro-3,5-dimethoxy-phenyl)-1-{6-[4-(4-ethyl-perpazin-1-yl)-phenylamino]-pyrimidin-4-yl}-1-methyl urea]
T/C (%) ([1]; 10 mg/kg): 34%
Δ body weight (% ± SEM) ([1]; 10 mg/kg): 18.0 ± 3.2%
Δ body weight (mean g ± SEM) ([1]; 10 mg/kg): 4.2 ± 0.7 g
Δ tumor volume (mean mm^3 ± SEM) ([1]; 10 mg/kg): 1320 ± 245* mm^3
T/C (%) ([1]; 30 mg/kg): 4%
Δ body weight (% ± SEM) ([1]; 30 mg/kg): 7.0 ± 3.1 %
Δ body weight (mean g ± SEM) ([1]; 30 mg/kg): 1.6 ± 0.7 g
Δ tumor volume (mean mm^3 ± SEM) ([1]; 30 mg/kg): 156 ± 56* mm^3
Regr. (%) ([1]; 50 mg/kg): 40%
Δ body weight (% ± SEM) ([1]; 50 mg/kg): 4.6 ± 2.2 %
Δ body weight (mean g ± SEM) ([1]; 50 mg/kg): 1.1 ± 0.5 g
Δ tumor volume (mean mm^3 ± SEM) ([1]; 50 mg/kg): −43 ± 28* mm^3
Bone remodeling events (histopathology) ([2]; 10 mg/kg/day 15 days + 4 days recovery, 20 mg/kg/day 3 days + 4 days recovery, 20 mg/kg/day 6 days): Signs of bone remodeling events were noted
Soft tissue/vascular mineralization (histopathology) ([2]; 10 mg/kg/qd groups): not observed
Body weight effect leading to premature termination ([2]; 20 mg/kg once daily p.o., after the 6th administration): severe body weight loss
Soft tissue/vascular mineralization (histopathology) ([2]; 20 mg/kg/day for 3 days after 4 recovery days, and after 6 days of treatment): Soft tissue/vascular mineralization was detected
Growth plate thickening (histopathology) ([2]; male rats, 10 and 20 mg/kg/day p.o., after three days of treatment): Growth plate thickening was detected
Plasma levels of FGF23 vs vehicle-treated group (FGF23 [3]): increased plasma levels of FGF23
Regr. (%) ([4]; 50 mg/kg): 67%
Δ body weight (% ± SEM) ([4]; 50 mg/kg): 10.8 ± 4.1%
Δ body weight (mean g ± SEM) ([4]; 50 mg/kg): 2.6 ± 1.0 g
Δ tumor volume (mean mm^3 ± SEM) ([4]; 50 mg/kg): −120 ± 12* mm^3
Regr. (%) ([4]; 75 mg/kg): 74%
Δ body weight (% ± SEM) ([4]; 75 mg/kg): −4.0 ± 4.5%
Δ body weight (mean g ± SEM) ([4]; 75 mg/kg): -1.1 ± 1.1 g
Δ tumor volume (mean mm^3 ± SEM) ([4]; 75 mg/kg): −133 ± 13* mm^3
Tolerability of treatments ([4]; 50 and 75 mg/kg per day orally): well tolerated
serum levels of FGF23 vs vehicle-treated group (FGF23 [5]; single oral 10 mg/kg): statistically significant increased in serum levels of FGF23
FGF-23 cont. (FGF23 [6]; group 2, 3 → 100 mg/kg/day p.o., animal # 453 (male)): 262.5 pg/mL
FGF-23 cont. (FGF23 [6]; group 2, 3 → 100 mg/kg/day p.o., animal # 454 (female)): 211.3 pg/mL
FGF-23 cont. (FGF23 [6]; group 3, 30 mg/kg/day p.o., 15 days, animal # 455 (male)): 534.3 pg/mL
FGF-23 cont. (FGF23 [6]; group 3, 30 mg/kg/day p.o., 15 days, animal # 456 (female)): 322.7 pg/mL
FGF-23 cont. (FGF23 [6]; group 4, 300 mg/kg/day p.o., 8 days, animal # 457 (male)): 824.6 pg/mL
FGF-23 cont. (FGF23 [6]; group 4, 300 mg/kg/day p.o., 8 days, animal # 458 (female)): 614.8 pg/mL

CCN(CC)CCCCNc1ncc2cc(-c3cc(OC)cc(OC)c3)c(NC(=O)NC(C)(C)C)nc2n1 [PD173074]
serum levels of FGF23 vs vehicle-treated group (FGF23 [5]; single oral 50 mg/kg): statistically significant increased in serum levels of FGF23
